Experimental findings from patent US12714736B2, “Methods for preventing an immunoglobulin e-related disease” (MY-OR DIAGNOSTICS LTD., priority 2019, dated 2026) are described below.

For the assay, the system named is Staphylococcus epidermidis. Briefly: Anti/pro microbial study: Staphylococcus epidermidis cultured on a plate comprising acemannan. Particulars: culture plate, Acemannan 0.2% (w/w) vs control (double-distilled water), FIG. 1. The class given is cell-based. How it is done: FIG. 1 includes a micrograph of culture plate of Staphylococcus epidermidis. The bacteria were cultured on the plate in presence of either Acemannan (0.2% (w/w)) or control (double-distilled water).
The inventors examined the activity of a composition comprising acemannan. The inventors performed an anti/pro microbial study, by culturing Staphylococcus epidermidis on a plate comprising acemannan. S. epidermidis is a skin resident who is known to play an important role in immune training and pathogen resistance. […] This supports the inventors' notion that the herein disclosed cream supports healthy colonization of the skin microbiome.

In the case of Acemannan, the “growth of S. epidermidis” value was “Comparable levels of bacterial growth”. For the same substance, where the note is “listed as acemannan”, the “growth of S. epidermidis” value is “did not affect the growth of S. epidermidis”.
